Reference: patent publication US10654866B2, “Selective estrogen receptor degraders” (Eli Lilly and Company, priority 2018, dated 2020)
Where two headings read alike, the source gives them in different places.

Tests used:
ERα = ERα (Homo sapiens (Human), UniProt P03372); test: PRα induction assay in MCF7 cells; format: cell-based; settings: MCF7 breast cancer cells
Protocol: The purpose of the following PRα induction assay is to determine whether a test compound has agonistic activity against ERα receptor (an agonist would be expected to activate the receptor).
Culture MCF7 (purchased from ATCC HTB-22) in DMEM media supplemented with 10% FBS, 0.01 mg/mL human insulin 1 and 1% penicillin/streptomycin antibiotics and plate the cells (prior to becoming 70% confluent) in 384-well flat-bottom plates at a density of 4,000 cells per well in 20 μL volume in DMEM phenol red free media containing 10% FBS (charcoal stripped). Incubate the cells overnight in a cell culture incubator (5% CO2, 95% relative humidity at 37° C.) and allow the cells to attach to the plate. The following day, dose the cells with test compound. Use an Echo 555 acoustic dispenser to prepare compound serial dilutions (1:3) in a range from 6 μM to 0.0003 μM. Dose the cells with the addition of the test compound (5 μL) from the serial dilution plate to the cell plate producing a final DMSO concentration of 0.2% with a final concentration of the test compound dose range between 2 and 0.0001 μM. For the maximum point use media containing 0.2% of DMSO and for the minimum point, use fulvestrant diluted at 2 μM final concentrations in the growth media containing 0.2% DMSO. After dosing with the test compound, incubate the cell plates at 37° C. and 5% CO2 for 24 hours. Fix the cells by adding 14% para-formaldehyde (10 μL) for 30 minutes at room temperature. Wash cells once with PBS (20 μL) and incubate with PBS (20 μL) containing 0.5% (v/v) TWEEN® 20 for 1 hour. Wash cells twice with PBS (20 μL) containing 0.05% TWEEN® 20 and block with 3% BSA in PBS containing 0.05% TWEEN® 20 and 0.1% TRITON™ X-100 (20 μL/well) for 1 hour at room temperature. […]
The following day, wash cells with PBS 0.05% TWEEN® 20 (2×20 μL) and incubate with secondary antibody (20 μL/well) (1:1000 dilution, Goat anti-rabbit IgM ALEXA FLUOR™ 488) in PBS 1% BSA for 105 minutes at room temperature. […] Scan plates with ACUMEN EXPLORER™ [Laser-scanning fluorescence microplate cytometer manufactured by TTP LABTECH LTD] to measure PRα. […]

MCF7 ESR1 wild type = test: Cell proliferation assay in MCF7; format: cell-based, human; settings: seven days, read-out: Relative IC50 (μM) MCF7 ESR1 wild type
Protocol: (§1) Seed MCF7 (purchased from ATCC HTB-22) cells at a density of 2,000 cells per well in DMEM phenol red free media 10% FBS (20 μL volume) (charcoal stripped) into a clear bottom 384-well cell culture plate. Plate MCF7-ESRY537N-682 (generated by CRISPR/Cas9 gene editing of ESr1 gene in MCF7 cells, clone #682) in DMEM media supplemented with 10% FBS, and 1% penicillin/streptomycin antibiotics at a density of 1000 cells per well. Incubate the plates at 37° C. and 5% CO2. The following day dose the cells with the test compound. Use an Echo 555 acoustic dispenser to prepare test compound serial dilutions (1:3) in a range from 60 μM to 0.003 μM. Dose the cells with the addition of 5 μL from the serial dilution plate to the cell plate, producing a final DMSO concentration of 0.2% with a final test compound concentration dose range between 20 and 0.001 μM. For the maximum point use media containing 0.2% of DMSO and for the minimum point use fulvestrant diluted at 2 μM final concentrations in the growth media containing 0.2% DMSO. After dosing with the test compound, incubate the cell plates at 37° C. and 5% CO2. Seven days after test compound addition, remove the plates from the incubator and add cold EtOH 96% (65 μL) to each well. […] Seal the plates and incubate 1 hour at room temperature on the bench (preserved from light). Scan the plates with ACUMEN EXPLORER™ [Laser-scanning fluorescence microplate cytometer manufactured by TTP LABTECH LTD].

[1] = test system: MCF7 ESR1 Y537N mutant cells; test: Cell proliferation assay in MCF7-ESR1 Y537N-682; format: cell-based, human; settings: seven days, read-out: Relative IC50 (μM) MCF7 ESR1 Y537N mutant cells
Protocol: as §1

[2] = test system: MCF7 ER-positive breast cancer model; test: In vivo combination studies in MCF7 ER-positive breast cancer xenograft model; parameters: species or system mice; settings: Example 10 15 mpk; for Difference (Treatment 1 − Treatment 2): Treatment 1 = Vehicle, log10 tumor volume, QD × 42, PO
Text: Otherwise, the statistical conclusion is additive.

ERα, sequence (P03372 whole entry): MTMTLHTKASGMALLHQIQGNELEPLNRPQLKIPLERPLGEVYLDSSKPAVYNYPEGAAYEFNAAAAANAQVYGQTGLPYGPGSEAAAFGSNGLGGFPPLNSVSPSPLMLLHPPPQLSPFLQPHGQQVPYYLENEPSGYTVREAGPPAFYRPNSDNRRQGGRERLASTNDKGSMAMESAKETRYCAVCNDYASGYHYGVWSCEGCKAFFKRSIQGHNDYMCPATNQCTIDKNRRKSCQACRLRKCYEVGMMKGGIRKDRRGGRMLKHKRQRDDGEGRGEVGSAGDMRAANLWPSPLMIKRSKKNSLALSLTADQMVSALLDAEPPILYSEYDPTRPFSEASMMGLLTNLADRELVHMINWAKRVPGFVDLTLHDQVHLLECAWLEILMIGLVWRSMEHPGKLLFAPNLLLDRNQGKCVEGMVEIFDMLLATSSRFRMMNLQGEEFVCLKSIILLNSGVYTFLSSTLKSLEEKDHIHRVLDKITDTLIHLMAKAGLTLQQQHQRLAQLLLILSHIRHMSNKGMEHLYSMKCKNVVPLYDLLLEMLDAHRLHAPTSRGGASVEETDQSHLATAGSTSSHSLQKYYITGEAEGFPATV

**Q.** Which agonistic activity (ERα) does the source give for `Oc1ccc2c3c(cnc2c1)-c1ccc(C(F)(F)F)cc1OC3c1ccc(OCCN2CC(CF)C2)cc1` (racemic) [Example 1, 5-(4-{2-[3-(Fluoromethyl)azetidin-1-yl]ethoxy}phenyl)-8-(trifluoromethyl)-5H-[1]benzopyrano[4,3-c]quinolin-2-ol] here?
**A.** The agonistic activity was “no significant agonistic activity”.

**Q.** And the IC50 (MCF7 ESR1 wild type; Homo sapiens, MCF7, […])?
**A.** Its IC50 is 0.00768 ± 0.0126 µM.

**Q.** And the IC50 ([1]; Homo sapiens, MCF7, […])?
**A.** The IC50 was 0.0321 ± 0.0068 µM.

**Q.** How did the agonistic activity (ERα) turn out when `Oc1ccc2c3c(cnc2c1)-c1ccc(C(F)(F)F)cc1OC3c1ccc(OCCN2CC(CF)C2)cc1` (single isomer, unassigned) [Example 1A, 5-(4-{2-[3-(Fluoromethyl)azetidin-1-yl]ethoxy}phenyl)-8-(trifluoromethyl)-5H-[1]benzopyrano[4,3-c]quinolin-2-ol] was run?
**A.** The agonistic activity was “no significant agonistic activity”.

**Q.** And the IC50 [1]?
**A.** The IC50 was 1.86 ± 1.03 µM.

**Q.** Which IC50 (MCF7 ESR1 wild type) does the source give for `Cc1ccc(S(=O)(=O)O)cc1.Oc1ccc2c3c(cnc2c1)-c1ccc(C(F)(F)F)cc1OC3c1ccc(OCCN2CC(CF)C2)cc1` (single isomer, unassigned; isomer 2) [Example 10, 5-(4-{2-[3-(Fluoromethyl)azetidin-1-yl]ethoxy}phenyl)-8-(trifluoromethyl)-5H-[1]benzopyrano[4,3-c]quinolin-2-ol, 4-methylbenzenesulfonic acid, Isomer 2] here?
**A.** Its IC50 is 0.00438 µM.

**Q.** And the IC50 [1]?
**A.** The IC50 was 0.0106 µM.

**Q.** What about the “Delta T/C % or % Regression” value ([2]; Abemaciclib 50 mpk, QD × 42, PO (Table 20)) of the same compound?
**A.** Its value is −51%.

**Q.** And the “Delta T/C % or % Regression” value ([2]; Everolimus 5 mpk, QD × 42, PO (Table 24))?
**A.** The value was −51%.

**Q.** And the “Delta T/C % or % Regression” value ([2]; alpelisib 15 mpk (d1-d7), 10 mpk (d8-42), QD × 42, PO (Table 22))?
**A.** The value was −51%.

**Q.** And the “Difference (Treatment 1 − Treatment 2)” value ([2]; Abemaciclib 50 mpk)?
**A.** The value was 0.659.

**Q.** What about the “Difference (Treatment 1 − Treatment 2)” value ([2]; Everolimus 5 mpk) of the same compound?
**A.** The value was 0.445.

**Q.** What about the “Difference (Treatment 1 − Treatment 2)” value ([2]; alpelisib 15 mpk (d1-d7), 10 mpk (d8-42)) of the same compound?
**A.** The value was 0.241.
